Test [1] addresses T1, Mitogen-activated protein kinase 14 (Homo sapiens, UniProt Q16539). Kind of test: Inhibition of p38alpha by immunosorbent based kinase assay.
The subject of test [2] is Serine/threonine-protein kinase B-raf (Homo sapiens), P15056 [V600E]. In words: Inhibition of BRAF V600E mutant at 10 uM.
For test [3], the target named is Aurora kinase B (Homo sapiens) (UniProt Q96GD4). Kind of test: Inhibition of AuroraB at 10 uM.
Test [4] has as its target T2, Serine/threonine-protein kinase PLK4 (Homo sapiens) (UniProt O00444).
T2 sequence (whole entry): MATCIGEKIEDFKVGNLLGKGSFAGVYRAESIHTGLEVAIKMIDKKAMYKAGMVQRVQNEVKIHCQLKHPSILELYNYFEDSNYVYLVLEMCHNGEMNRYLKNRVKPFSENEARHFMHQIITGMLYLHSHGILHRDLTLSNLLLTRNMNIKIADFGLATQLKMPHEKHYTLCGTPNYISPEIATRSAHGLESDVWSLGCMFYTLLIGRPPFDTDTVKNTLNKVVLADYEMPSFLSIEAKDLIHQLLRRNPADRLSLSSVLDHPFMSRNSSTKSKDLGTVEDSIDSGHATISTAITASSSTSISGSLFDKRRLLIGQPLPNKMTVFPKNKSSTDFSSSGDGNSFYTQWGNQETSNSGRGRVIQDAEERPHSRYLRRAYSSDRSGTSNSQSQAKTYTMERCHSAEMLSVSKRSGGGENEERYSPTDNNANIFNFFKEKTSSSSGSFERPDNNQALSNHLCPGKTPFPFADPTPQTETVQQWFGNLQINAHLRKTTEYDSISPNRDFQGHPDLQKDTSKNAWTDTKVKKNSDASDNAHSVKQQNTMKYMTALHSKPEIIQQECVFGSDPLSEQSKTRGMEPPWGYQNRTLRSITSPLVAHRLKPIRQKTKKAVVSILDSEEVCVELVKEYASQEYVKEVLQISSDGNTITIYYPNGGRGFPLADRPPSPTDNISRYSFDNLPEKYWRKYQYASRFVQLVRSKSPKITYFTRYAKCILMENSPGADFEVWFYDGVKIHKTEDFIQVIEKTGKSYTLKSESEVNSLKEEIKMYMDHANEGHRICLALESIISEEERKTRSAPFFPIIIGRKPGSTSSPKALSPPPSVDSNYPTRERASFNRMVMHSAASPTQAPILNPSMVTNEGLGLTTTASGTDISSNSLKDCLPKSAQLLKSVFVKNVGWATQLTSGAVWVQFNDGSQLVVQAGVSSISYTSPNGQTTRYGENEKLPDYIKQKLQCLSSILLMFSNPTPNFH
In words: Inhibition of SAK at 10 uM.

The target in test [5] is Tyrosine-protein kinase receptor UFO (Homo sapiens) (UniProt P30530). In words: Inhibition of AXL at 10 uM.
Tyrosine-protein kinase receptor UFO (Homo sapiens), sequence (P30530 whole entry): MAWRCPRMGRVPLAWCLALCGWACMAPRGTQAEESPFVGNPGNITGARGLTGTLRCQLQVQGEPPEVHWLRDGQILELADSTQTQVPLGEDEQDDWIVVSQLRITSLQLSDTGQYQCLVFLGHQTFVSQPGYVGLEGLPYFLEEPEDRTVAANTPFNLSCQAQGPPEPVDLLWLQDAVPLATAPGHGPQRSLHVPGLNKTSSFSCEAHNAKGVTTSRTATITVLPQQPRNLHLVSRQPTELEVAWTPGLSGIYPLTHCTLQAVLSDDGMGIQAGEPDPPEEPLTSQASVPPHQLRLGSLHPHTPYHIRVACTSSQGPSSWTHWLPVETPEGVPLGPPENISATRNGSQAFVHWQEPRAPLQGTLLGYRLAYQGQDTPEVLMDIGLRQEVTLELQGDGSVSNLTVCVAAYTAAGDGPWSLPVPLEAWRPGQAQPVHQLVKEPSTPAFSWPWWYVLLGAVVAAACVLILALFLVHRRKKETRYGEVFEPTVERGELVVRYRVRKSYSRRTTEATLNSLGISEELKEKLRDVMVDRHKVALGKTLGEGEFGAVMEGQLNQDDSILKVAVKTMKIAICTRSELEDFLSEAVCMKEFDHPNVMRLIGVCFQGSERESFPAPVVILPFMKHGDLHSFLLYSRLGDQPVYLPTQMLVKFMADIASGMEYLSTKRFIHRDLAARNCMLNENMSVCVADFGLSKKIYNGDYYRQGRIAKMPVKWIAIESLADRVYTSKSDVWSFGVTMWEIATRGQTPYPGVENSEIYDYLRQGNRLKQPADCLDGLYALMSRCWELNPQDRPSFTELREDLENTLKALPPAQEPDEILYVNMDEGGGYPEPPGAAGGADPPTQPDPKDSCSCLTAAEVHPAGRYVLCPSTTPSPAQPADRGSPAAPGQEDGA
For test [6], the target named is Focal adhesion kinase 1 (Homo sapiens) (UniProt Q05397). Kind of test: Inhibition of FAK at 10 uM.
Test [7] concerns the target Serine/threonine-protein kinase N1 (Homo sapiens) (UniProt Q16512). In words: Inhibition of PRK1 at 10 uM.
Test [8] addresses Casein kinase II subunit alpha (Homo sapiens) (UniProt P68400). In words: Inhibition of CK2alpha1 at 10 uM.
For test [9], the target named is Insulin-like growth factor 1 receptor (Homo sapiens) (UniProt P08069). Kind of test: Inhibition of IGF1R at 10 uM.
Test [10] has as its target Serine/threonine-protein kinase PLK1 (Homo sapiens) (UniProt P53350). In words: Inhibition of PLK1 at 10 uM.
In test [11] the target is Vascular endothelial growth factor receptor 2 (Homo sapiens) (UniProt P35968). In words: Inhibition of VEGFR2 at 10 uM.
Vascular endothelial growth factor receptor 2 (Homo sapiens), sequence (P35968 whole entry): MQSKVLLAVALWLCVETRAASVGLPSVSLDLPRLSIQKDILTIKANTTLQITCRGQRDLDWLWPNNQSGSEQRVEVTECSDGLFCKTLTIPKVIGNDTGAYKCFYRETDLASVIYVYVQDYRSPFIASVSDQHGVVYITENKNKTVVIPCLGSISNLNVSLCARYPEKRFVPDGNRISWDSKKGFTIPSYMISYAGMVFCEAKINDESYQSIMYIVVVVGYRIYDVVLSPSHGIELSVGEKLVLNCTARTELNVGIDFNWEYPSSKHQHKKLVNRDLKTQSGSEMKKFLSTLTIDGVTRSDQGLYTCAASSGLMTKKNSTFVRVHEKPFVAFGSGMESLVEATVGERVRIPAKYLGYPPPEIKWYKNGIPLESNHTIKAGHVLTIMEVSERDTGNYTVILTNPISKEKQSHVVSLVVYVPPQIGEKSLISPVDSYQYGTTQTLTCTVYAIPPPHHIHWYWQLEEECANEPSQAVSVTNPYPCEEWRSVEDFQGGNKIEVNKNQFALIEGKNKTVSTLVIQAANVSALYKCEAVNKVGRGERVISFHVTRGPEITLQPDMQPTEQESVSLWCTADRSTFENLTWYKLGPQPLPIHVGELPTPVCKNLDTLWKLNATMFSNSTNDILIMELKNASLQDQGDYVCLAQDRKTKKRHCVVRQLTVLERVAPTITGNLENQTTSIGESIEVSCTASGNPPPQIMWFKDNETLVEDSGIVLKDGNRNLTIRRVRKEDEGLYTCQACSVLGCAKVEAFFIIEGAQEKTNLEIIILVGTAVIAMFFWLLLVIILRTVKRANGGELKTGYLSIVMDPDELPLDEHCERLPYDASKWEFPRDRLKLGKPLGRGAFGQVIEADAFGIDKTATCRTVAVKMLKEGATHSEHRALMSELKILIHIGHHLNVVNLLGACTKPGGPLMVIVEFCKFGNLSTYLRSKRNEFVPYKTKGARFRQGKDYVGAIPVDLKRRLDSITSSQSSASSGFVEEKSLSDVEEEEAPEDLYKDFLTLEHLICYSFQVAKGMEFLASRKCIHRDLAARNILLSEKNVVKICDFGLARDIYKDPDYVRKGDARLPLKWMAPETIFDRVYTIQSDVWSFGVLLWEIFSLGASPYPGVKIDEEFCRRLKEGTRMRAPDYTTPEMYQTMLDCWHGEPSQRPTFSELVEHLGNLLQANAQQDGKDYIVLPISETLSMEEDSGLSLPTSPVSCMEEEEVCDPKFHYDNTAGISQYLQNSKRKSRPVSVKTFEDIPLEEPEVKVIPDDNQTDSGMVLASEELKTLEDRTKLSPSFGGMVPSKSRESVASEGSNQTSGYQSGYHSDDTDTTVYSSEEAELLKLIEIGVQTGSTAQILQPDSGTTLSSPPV
In test [12] the target is BDNF/NT-3 growth factors receptor (Homo sapiens) (UniProt Q16620). Kind of test: Inhibition of TRKB at 10 uM.
For test [13], the target named is Insulin receptor (Homo sapiens) (UniProt P06213). In words: Inhibition of INSR at 10 uM.
Test [14] addresses T1, Mitogen-activated protein kinase 14. Kind of test: Inhibition of p38alpha-dependent TNFalpha production in human whole blood.
The target of test [15] is RAC-alpha serine/threonine-protein kinase (Homo sapiens) (UniProt P31749). Kind of test: Inhibition of AKT1 at 10 uM.
The target in test [16] is Hepatocyte growth factor receptor (Homo sapiens) (UniProt P08581). In words: Inhibition of MET at 10 uM.
Test [17] has as its target T3, NUAK family SNF1-like kinase 1 (Homo sapiens) (UniProt O60285).
T3 sequence (whole entry): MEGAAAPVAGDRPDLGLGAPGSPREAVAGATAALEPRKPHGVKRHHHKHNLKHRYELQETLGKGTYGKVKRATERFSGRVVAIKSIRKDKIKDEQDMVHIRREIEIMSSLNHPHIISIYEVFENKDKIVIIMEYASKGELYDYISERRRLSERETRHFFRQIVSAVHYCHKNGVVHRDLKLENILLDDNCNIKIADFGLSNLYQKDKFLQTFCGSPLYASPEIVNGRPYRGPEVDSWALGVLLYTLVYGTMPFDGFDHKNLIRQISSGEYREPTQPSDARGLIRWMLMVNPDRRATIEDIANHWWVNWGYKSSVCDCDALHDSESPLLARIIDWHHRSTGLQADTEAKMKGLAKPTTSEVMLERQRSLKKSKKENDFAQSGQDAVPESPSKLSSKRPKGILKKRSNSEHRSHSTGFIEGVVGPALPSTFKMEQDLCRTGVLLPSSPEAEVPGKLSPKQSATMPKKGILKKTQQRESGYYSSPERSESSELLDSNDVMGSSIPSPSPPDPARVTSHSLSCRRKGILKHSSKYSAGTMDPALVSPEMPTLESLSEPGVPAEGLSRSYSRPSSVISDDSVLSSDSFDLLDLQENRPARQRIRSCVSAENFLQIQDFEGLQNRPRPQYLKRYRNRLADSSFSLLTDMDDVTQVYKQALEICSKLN
In words: Inhibition of ARK5 at 10 uM.

Test [18] concerns the target Proto-oncogene tyrosine-protein kinase Src (Homo sapiens) (UniProt P12931). In words: Inhibition of SRC at 10 uM.

The structures appear in SMILES notation. pIC50: −log10 of the molar value. The source made the active and inactive calls. The rule behind the calls is not given here.

Serine/threonine-protein kinase N1 (Homo sapiens), sequence (Q16512 2-942 limits assumed): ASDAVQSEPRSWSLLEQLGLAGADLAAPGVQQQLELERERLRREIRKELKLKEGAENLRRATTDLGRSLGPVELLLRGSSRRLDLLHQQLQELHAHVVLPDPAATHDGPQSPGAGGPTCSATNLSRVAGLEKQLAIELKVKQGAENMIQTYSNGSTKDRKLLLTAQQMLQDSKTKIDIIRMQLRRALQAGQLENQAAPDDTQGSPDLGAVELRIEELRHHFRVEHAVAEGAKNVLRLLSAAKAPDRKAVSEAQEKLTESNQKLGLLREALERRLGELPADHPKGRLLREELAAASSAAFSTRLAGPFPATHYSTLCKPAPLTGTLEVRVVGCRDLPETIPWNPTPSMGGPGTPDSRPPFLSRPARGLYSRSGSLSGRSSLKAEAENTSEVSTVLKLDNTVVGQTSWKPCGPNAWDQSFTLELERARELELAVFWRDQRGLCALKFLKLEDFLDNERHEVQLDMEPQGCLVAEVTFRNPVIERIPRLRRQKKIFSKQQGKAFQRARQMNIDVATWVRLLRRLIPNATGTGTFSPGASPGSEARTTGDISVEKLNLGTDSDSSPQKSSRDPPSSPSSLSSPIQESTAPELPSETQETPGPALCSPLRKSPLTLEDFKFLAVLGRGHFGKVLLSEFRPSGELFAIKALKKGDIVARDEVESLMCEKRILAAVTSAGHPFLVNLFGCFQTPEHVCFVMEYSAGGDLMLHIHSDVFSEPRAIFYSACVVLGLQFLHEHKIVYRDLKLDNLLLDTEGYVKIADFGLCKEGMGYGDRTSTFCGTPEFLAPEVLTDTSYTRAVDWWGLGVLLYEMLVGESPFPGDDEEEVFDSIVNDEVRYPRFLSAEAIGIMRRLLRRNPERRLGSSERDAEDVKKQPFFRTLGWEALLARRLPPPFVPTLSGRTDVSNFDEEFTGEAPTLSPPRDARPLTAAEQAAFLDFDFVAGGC
Proto-oncogene tyrosine-protein kinase Src (Homo sapiens), sequence (P12931 2-536 limits assumed): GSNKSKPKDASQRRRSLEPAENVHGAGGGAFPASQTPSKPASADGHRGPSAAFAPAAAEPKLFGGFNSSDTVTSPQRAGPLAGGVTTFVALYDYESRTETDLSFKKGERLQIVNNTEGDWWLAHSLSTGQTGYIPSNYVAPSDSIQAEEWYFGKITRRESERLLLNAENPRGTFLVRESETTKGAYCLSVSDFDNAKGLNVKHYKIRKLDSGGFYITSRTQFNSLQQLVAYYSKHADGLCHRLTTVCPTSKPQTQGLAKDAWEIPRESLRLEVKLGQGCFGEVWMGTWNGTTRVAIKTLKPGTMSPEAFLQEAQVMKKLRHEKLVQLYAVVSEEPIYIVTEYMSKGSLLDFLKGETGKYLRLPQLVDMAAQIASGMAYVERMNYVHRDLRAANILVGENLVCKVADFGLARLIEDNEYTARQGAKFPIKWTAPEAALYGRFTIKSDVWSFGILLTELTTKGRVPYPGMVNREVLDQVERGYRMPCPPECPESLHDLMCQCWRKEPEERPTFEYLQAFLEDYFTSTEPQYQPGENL
T1 sequence (Q16539 whole entry): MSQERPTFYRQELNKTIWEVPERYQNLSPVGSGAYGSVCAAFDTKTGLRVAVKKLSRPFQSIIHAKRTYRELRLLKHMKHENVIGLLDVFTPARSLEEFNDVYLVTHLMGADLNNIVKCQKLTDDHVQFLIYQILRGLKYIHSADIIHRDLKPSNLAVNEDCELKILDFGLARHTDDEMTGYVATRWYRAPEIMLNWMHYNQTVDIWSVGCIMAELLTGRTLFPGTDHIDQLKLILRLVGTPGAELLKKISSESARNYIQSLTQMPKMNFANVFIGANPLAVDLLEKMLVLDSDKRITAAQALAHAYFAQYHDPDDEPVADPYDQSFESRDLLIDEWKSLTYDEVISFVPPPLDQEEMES
Serine/threonine-protein kinase B-raf (Homo sapiens), P15056 [V600E], sequence (P15056 whole entry V600E): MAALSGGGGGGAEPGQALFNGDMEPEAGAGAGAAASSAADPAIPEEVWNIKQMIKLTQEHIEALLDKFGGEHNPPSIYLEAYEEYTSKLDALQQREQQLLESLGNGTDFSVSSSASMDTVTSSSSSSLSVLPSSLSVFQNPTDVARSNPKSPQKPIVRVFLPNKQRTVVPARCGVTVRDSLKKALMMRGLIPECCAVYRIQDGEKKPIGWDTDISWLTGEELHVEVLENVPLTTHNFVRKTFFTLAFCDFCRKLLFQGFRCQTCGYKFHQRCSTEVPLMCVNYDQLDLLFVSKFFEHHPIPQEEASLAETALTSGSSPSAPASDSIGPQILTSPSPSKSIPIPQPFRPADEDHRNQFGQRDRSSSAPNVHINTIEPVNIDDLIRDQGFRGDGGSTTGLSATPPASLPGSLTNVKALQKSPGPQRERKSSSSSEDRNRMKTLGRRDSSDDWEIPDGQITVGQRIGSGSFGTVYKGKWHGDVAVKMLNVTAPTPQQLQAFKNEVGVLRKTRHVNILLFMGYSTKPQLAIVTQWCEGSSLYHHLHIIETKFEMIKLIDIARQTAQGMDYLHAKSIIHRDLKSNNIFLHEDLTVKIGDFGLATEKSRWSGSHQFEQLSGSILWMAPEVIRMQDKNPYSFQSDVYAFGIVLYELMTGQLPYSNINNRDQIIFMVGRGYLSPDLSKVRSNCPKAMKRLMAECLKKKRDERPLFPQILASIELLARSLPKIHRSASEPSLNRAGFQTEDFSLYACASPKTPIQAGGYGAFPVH

A word on the pIC50: it is −log10 of the IC50, conventionally taken in molar units. As to `O=C1c2ccc(Nc3ccc(F)cc3F)cc2CCc2cc(OC[C@@H](O)CO)ccc21`, the pIC50 in test [1] is 8.30; in [14], 5.28. For the same compound, the inhibition result in test [2], in test [3], in test [4], in test [5], in test [6] and in [7] was “inactive” each time. The inhibition entry in [8], in [9], in test [10], in test [11], in test [12] and in [13] was “inactive” in each case. Also, the inhibition entry in test [15], in [16], in test [17] and in test [18] was “inactive” throughout.

As to `COc1cccc2c1CCc1cc(Nc3ccc(F)cc3F)ccc1C2=O`, the pIC50 in [1] was 7.10; in test [14], 4.10. Further, the inhibition entry in test [2], in test [3], in test [4], in test [5], in [6] and in [7] was “inactive” throughout. Besides, the inhibition result in test [8], in [9], in test [10], in test [11], in [12] and in test [13] was “inactive” in each case. Besides, the inhibition result in test [15], in test [16], in test [17] and in test [18] was “inactive” each time.

As to `O=C1c2ccc(Nc3ccc(F)cc3F)cc2CCc2c(OCCN3CCOCC3)cccc21`, the figures for the pIC50 in test [1] and in test [14] were 7.52 and 3.70, respectively. In addition, the inhibition entry in test [2], in [3], in test [4], in test [5], in test [6] and in test [7] was “inactive” in each case. In addition, the inhibition entry in test [8], in test [9], in test [10], in test [11], in test [12] and in [13] was “inactive” in each case. The inhibition entry in test [15], in [16], in test [17] and in test [18] was “inactive” throughout.

Consider `CC1(C)OC[C@@H](COc2ccc3c(c2)CCc2cc(Nc4ccc(F)cc4F)ccc2C3=O)O1`, for which the pIC50 in test [1] was 6.44; in test [14], 3.91. Moreover, the inhibition result in test [2], in test [3], in [4], in [5], in test [6] and in [7] was “inactive” throughout. The inhibition entry in test [8], in test [9], in test [10], in [11], in [12] and in test [13] was “inactive” in each case. In addition, the inhibition entry in [15], in [16], in test [17] and in [18] was “inactive” in each case.

Take `COc1ccc2c(c1)C(=O)c1ccc(Nc3ccc(F)cc3C)cc1CC2`: the negative logarithm of the IC50 (pIC50) in test [1] is 7.22; in [14], 5.41. Moreover, the inhibition result in test [2], in [3], in test [4], in [5], in test [6] and in test [7] was “inactive” throughout. Also, the inhibition result in [8], in test [9], in test [10], in [11], in [12] and in [13] was “inactive” throughout. Further, the inhibition entry in test [15], in [16], in test [17] and in test [18] was “inactive” each time.

For `CC1(C)OC[C@H](COc2ccc3c(c2)C(=O)c2ccc(Nc4ccccc4N)cc2CC3)O1`, the pIC50 in [1] was 7.52; in test [14], 6.72. The inhibition entry in [2], in test [3], in [4], in test [5], in test [6] and in test [7] was “inactive” in each case. Moreover, the inhibition result in test [8], in test [9], in test [10], in test [11], in [12] and in test [13] was “inactive” throughout. Further, the inhibition entry in test [15], in [16], in [17] and in test [18] was “inactive” each time.

In the case of `O=C1c2ccc(Nc3ccc(F)cc3F)cc2CCc2ccc(OC3CCOCC3)cc21`, the figures for the pIC50 in test [1] and in test [14] were 7.22 and 6.28, respectively. The inhibition result in test [2], in [3], in test [4], in test [5], in [6] and in [7] was “inactive” each time. For the same compound, the inhibition entry in test [8], in [9], in test [10], in [11], in test [12] and in [13] was “inactive” throughout. Further, the inhibition entry in test [15], in test [16], in test [17] and in test [18] was “inactive” each time.
